Measurements: ChEMBL document CHEMBL4507298 (2021)

How the values were obtained:
Details in all cases: Compound concentration 10.0 uM
[1] = molecular target: 5-hydroxytryptamine receptor 1E (Homo sapiens) (UniProt P28566)
[2] = molecular target: 5-hydroxytryptamine receptor 2B (Homo sapiens) (UniProt P41595)
[3] = molecular target: T1, 5-hydroxytryptamine receptor 3A (Homo sapiens) (UniProt P46098)
T1 sequence (whole entry): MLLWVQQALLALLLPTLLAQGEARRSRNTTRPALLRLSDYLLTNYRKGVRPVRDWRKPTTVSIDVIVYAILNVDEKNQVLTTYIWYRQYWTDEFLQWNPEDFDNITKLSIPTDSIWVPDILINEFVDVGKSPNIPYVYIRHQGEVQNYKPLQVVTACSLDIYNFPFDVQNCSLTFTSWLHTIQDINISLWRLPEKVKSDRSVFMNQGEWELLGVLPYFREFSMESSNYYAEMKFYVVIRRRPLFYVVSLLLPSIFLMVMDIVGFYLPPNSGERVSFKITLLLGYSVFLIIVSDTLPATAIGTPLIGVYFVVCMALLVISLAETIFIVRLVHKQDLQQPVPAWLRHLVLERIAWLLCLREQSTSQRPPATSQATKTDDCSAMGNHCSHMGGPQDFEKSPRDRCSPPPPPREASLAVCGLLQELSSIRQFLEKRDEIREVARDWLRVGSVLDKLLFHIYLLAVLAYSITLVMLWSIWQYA

[4] = molecular target: 5-hydroxytryptamine receptor 6 (Homo sapiens) (UniProt P50406)
[5] = molecular target: D(3) dopamine receptor (Homo sapiens) (UniProt P35462)
[6] = molecular target: Sodium-dependent serotonin transporter (Homo sapiens) (UniProt P31645)
[7] = molecular target: Sodium-dependent noradrenaline transporter (Homo sapiens) (UniProt P23975)
[8] = molecular target: Kappa-type opioid receptor (Homo sapiens) (UniProt P41145)
[9] = molecular target: T2, GABA-A receptor; anion channel (Rattus norvegicus) (UniProt O09028+P15431+P18506+P18508+P19969+P20236+P23574+P23576+P28471+P28473+P30191+P62813+P63079+P63138+Q91ZM7+Q9ES14)
[10] = molecular target: Histamine H2 receptor (Homo sapiens) (UniProt P25021)
[11] = molecular target: Alpha-1A adrenergic receptor (Homo sapiens) (UniProt P35348)
[12] = molecular target: T3, Alpha-2A adrenergic receptor (Homo sapiens) (UniProt P08913)
T3 sequence (whole entry): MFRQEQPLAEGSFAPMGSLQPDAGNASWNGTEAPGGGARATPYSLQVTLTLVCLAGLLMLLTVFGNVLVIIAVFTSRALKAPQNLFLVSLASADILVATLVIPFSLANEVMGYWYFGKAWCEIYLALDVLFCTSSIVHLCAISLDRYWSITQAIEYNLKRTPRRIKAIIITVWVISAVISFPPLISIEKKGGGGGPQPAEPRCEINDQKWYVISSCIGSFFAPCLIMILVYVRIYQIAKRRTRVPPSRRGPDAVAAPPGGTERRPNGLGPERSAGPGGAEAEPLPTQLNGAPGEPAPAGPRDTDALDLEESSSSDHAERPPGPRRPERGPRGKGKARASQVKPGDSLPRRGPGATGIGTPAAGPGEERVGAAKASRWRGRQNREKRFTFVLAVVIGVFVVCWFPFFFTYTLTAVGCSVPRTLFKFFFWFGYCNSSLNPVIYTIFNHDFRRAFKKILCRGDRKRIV

[13] = molecular target: T4, Muscarinic acetylcholine receptor M1 (Homo sapiens) (UniProt P11229)
T4 sequence (whole entry): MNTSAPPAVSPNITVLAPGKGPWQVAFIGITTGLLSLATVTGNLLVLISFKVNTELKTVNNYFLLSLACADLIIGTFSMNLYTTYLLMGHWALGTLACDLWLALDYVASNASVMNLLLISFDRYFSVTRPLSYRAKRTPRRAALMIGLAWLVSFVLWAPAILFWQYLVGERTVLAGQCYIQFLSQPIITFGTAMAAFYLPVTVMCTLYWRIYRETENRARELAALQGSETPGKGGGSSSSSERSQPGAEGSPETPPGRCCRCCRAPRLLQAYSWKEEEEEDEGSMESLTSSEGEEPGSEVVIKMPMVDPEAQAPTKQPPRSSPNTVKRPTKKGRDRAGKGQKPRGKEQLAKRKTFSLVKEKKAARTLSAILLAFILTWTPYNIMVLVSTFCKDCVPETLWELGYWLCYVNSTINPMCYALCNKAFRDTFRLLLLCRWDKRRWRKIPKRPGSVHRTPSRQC

[14] = molecular target: T5, Muscarinic acetylcholine receptor M5 (Homo sapiens) (UniProt P08912)
T5 sequence (whole entry): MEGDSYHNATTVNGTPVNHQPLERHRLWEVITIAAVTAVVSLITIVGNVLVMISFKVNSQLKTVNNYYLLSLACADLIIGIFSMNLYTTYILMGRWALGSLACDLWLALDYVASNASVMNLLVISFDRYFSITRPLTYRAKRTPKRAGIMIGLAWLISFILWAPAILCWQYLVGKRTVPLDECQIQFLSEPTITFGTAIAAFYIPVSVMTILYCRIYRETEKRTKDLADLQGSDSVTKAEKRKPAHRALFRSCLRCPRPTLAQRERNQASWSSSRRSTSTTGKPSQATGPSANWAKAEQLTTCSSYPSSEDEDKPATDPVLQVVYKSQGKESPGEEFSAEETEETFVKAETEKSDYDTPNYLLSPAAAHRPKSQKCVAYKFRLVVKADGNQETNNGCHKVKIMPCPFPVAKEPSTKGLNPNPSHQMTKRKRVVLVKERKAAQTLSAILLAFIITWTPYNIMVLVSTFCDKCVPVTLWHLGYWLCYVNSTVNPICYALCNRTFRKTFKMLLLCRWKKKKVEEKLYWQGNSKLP

[15] = molecular target: T2, GABA-A receptor; anion channel (Rattus norvegicus); remark: listed apart in the source
[16] = molecular target: Alpha-1D adrenergic receptor (Homo sapiens) (UniProt P25100)

Measured: inhibition

Sequence of Sodium-dependent serotonin transporter (Homo sapiens) (P31645 whole entry, looked up): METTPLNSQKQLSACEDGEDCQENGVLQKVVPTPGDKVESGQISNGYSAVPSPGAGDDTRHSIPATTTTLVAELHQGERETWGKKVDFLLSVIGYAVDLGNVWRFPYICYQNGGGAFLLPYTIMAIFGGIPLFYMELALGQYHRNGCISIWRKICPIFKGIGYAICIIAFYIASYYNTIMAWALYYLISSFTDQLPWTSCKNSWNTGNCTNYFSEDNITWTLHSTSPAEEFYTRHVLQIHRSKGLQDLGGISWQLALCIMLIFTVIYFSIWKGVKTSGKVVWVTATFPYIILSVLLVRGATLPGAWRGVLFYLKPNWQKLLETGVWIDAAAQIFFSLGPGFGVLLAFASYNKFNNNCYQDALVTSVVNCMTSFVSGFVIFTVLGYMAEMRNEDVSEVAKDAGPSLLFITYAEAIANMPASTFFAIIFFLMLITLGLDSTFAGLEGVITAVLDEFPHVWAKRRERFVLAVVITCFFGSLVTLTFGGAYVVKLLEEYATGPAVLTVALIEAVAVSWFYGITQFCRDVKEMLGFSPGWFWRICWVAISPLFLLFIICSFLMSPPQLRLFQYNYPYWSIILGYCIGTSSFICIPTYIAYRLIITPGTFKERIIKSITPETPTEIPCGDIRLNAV
Sequence of 5-hydroxytryptamine receptor 2B (Homo sapiens) (P41595 whole entry): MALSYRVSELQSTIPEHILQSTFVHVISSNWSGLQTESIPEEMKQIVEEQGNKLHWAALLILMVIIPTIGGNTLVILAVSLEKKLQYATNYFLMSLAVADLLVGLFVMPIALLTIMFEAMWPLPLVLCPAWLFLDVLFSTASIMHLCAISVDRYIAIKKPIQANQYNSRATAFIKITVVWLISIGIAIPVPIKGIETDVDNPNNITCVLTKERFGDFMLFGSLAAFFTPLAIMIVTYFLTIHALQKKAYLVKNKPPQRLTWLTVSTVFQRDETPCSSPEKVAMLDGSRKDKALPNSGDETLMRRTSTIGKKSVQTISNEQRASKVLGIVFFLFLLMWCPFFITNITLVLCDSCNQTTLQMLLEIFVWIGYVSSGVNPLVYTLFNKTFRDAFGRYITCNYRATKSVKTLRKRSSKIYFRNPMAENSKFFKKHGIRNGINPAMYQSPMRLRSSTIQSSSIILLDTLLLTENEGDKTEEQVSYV
Sequence of Alpha-1A adrenergic receptor (Homo sapiens) (P35348 whole entry): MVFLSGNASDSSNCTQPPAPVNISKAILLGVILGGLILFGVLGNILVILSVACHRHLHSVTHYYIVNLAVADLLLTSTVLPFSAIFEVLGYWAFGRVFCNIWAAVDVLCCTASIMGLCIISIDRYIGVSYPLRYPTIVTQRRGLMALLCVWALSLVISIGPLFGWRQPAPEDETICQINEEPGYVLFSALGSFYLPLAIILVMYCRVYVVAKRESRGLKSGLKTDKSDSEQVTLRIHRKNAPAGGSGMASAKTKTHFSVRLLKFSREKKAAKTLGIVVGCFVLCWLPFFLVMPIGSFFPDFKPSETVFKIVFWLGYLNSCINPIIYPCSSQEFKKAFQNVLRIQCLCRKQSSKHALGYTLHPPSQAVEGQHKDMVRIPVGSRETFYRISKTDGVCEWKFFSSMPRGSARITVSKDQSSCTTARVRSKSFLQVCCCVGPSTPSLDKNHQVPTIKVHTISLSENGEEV
Sequence of Histamine H2 receptor (Homo sapiens) (P25021 whole entry): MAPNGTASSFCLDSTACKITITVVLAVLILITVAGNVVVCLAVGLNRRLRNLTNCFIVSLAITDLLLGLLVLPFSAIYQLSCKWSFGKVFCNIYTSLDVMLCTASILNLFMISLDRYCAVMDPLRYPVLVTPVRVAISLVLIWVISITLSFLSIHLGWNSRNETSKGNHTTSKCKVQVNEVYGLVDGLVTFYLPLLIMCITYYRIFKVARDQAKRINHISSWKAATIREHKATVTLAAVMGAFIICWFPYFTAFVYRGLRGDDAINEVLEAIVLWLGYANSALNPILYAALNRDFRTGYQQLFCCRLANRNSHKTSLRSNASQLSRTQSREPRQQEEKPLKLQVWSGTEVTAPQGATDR
Sequence of Kappa-type opioid receptor (Homo sapiens) (P41145 whole entry): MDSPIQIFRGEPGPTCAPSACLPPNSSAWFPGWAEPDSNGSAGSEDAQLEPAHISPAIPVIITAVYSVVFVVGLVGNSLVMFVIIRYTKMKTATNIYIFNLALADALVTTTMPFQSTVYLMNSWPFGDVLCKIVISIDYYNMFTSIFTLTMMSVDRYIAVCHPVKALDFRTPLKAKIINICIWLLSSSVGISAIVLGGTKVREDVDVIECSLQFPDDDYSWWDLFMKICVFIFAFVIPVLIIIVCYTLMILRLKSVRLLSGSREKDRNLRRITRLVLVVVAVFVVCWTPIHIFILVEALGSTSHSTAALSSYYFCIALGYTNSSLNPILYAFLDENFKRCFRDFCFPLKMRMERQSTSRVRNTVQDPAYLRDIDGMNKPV
Sequence of Alpha-1D adrenergic receptor (Homo sapiens) (P25100 whole entry): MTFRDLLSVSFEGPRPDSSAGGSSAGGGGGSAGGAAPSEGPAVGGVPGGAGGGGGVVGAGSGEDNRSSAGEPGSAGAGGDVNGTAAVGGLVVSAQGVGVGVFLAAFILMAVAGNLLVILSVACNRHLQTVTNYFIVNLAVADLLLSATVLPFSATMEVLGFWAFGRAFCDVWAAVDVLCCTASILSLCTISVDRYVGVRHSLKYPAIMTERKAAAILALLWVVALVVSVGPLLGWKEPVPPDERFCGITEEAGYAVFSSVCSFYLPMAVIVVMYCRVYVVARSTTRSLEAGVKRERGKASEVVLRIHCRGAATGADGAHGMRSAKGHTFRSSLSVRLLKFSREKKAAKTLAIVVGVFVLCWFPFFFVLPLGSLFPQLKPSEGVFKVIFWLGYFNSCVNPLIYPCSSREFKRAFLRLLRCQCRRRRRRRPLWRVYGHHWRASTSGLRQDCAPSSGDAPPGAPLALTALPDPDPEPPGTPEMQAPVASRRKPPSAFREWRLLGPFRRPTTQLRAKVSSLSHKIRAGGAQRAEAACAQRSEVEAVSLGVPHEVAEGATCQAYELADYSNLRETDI
Sequence of Sodium-dependent noradrenaline transporter (Homo sapiens) (P23975 whole entry): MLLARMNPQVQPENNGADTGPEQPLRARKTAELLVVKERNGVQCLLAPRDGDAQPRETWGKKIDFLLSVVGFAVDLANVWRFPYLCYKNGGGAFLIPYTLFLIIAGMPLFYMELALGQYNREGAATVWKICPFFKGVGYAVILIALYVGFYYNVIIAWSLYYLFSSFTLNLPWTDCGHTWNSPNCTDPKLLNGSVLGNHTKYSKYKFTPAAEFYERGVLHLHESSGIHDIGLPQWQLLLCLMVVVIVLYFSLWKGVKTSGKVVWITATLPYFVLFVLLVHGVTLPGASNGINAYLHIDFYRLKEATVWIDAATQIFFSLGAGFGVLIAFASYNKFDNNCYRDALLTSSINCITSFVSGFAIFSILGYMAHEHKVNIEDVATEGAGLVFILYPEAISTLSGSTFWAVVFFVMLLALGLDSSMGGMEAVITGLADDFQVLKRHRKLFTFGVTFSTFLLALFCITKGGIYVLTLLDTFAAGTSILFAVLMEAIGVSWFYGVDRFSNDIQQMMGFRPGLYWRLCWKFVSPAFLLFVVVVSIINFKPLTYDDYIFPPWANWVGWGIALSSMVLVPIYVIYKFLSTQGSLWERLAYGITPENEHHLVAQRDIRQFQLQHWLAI
Sequence of 5-hydroxytryptamine receptor 6 (Homo sapiens) (P50406 whole entry): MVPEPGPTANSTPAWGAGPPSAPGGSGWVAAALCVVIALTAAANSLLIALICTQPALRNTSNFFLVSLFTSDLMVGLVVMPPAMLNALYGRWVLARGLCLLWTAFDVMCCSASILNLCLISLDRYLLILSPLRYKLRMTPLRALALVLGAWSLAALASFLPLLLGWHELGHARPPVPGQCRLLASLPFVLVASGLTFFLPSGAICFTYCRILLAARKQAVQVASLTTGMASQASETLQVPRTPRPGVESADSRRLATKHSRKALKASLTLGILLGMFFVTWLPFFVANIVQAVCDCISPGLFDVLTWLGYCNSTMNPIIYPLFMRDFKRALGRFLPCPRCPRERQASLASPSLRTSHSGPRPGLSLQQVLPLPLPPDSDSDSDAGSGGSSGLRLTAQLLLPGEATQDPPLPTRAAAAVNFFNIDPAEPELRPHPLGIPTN
Sequence of D(3) dopamine receptor (Homo sapiens) (P35462 whole entry): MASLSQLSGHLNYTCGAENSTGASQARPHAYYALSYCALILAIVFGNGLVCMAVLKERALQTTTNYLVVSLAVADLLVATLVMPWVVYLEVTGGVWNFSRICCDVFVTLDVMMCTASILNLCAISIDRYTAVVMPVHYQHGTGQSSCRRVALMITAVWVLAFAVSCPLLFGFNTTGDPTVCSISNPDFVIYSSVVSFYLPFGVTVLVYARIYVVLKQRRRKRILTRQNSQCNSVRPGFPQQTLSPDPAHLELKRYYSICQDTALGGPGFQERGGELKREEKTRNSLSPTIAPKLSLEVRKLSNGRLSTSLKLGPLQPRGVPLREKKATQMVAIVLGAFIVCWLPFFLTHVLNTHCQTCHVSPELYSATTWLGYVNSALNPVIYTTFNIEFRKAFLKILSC
Sequence of 5-hydroxytryptamine receptor 1E (Homo sapiens) (P28566 whole entry): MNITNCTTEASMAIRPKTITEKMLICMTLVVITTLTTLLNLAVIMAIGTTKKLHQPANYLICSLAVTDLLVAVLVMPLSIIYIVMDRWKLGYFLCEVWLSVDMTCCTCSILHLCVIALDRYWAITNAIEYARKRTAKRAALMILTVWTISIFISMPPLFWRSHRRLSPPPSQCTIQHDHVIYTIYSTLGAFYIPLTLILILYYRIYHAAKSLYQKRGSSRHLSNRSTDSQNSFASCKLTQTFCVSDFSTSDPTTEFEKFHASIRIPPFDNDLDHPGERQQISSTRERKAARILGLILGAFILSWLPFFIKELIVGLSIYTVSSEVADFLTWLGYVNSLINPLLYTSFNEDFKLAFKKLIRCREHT

COc1ccc2cc(OCC3(C(=O)O)CN(C(=O)c4ccc(F)cc4)C3)ccc2c1 [PF-04418948]
inactive: [1] 11% | [2] -0.11% | [3] 0.08% | [4] -6.47% | [5] 33% | [6] -6.83% | [7] 11% | [8] 16.4% | [9] -1.97% | [10] 3% | [11] 2.52% | [12] 21.8% | [13] -0.03% | [14] -7.44% | [15] 18.7% | [16] -3.76%

O=C(c1ccc(F)cc1)N1CC(COc2ccc(Br)cc2)(C(=O)O)C1 [PF-04475866]
inactive: [1] 12.2% | [2] -2.5% | [3] 16.6% | [4] -2.64% | [5] 3.89% | [6] -6.29% | [7] 16.8% | [8] -9.45% | [9] -8.88% | [10] 15.7% | [11] -4.09% | [12] 14.2% | [13] -0.69% | [14] -0.33% | [15] -5.33% | [16] 5%
